In patent US9556113B2, “Combination uses of dichloroacetate and oxamate, and their prodrugs, for cancer treatment” (The South Dakota Board of Regents, priority 2014, dated 2017):

Tests used:
E6E7/Ras MTE cells = experiment: Live cell number, trypan blue exclusion assay; assay type: cell-based, mouse; details: 1 mM, 2.5 mM and 5 mM, one day, vs DMSO
Experimental: FIG. 4 illustrates prodrugs AT-N4-001 and AT-N4-002 inhibiting cell proliferation and colony growth of E6E7/Ras MTE cells. (A) E6E7/Ras MTE cultures were treated with DMSO (Con), AT-N4-001, or AT-N4-[…] 002 at the indicated concentration for one day. Live cell number was then determined using a trypan blue exclusion assay. (B) E6E7/Ras MTE cells were seeded on 100-mm plate at 500 cells per plate (in triplicate). After one day, cells were treated as indicated and allowed to grow until colonies of untreated controls reached 50 or more cells (7 days). Plates were stained with Coomassie blue to visualize the colonies. (C) Quantification of colonies described in B. Colonies with more than 15 cells were counted.
E6E7/Ras MTE cells are mouse tonsilar epithelial cells that have been transformed by HPV oncogenes E6 and E7 together with activated ras. They form tumors in mice and are a model of human HPV+HNSCC. These cells were treated in culture with either vehicle control (DMSO), AT-N4-001, or AT-N4-002 at concentrations of 1 mM, 2.5 mM and 5 mM for one day. Live cells were counted using a hemocytometer (FIG. 4A). […] The effects of the compounds on clonogenic growth of the cells were also tested. E6/E7/Ras MTE cells were seeded in 100 mm plates in triplicate, and the next day cells were treated with either vehicle control DMSO, 5 mM AT-N4-001, 5 mM AT-N4-002, or 10 mM DCA. […]

[1] = system: HPV+E6E7 Ras tumor (E6/E7/Ras MOEs cells); experiment: Tumor response to cisplatin/radiation therapy (CRT), HPV positive HNSCC mouse model; assay type: in vivo, C57Bl/6 mice; details: for tumor growth with CRT compared to DCA plus oxamate (FIG. 8A/19): prodrug 7.6 mg/mouse i.p. weekdays, control DCA 6 mg/mouse + oxamate 2 (2.2) mg/mouse, all with CRT
Experimental: FIG. 7 illustrates the effects of DCA plus oxamate on tumor growth (A) or on survival (B) with HPV+ model of HNSCC in wild-type C57Bl/6 mice. All mice received 3 rounds of cisplatin (0.132 mg/mouse) plus radiation (8 Gy/mouse) treatment (Tx) at weekly intervals starting […] after tumor initiation. Mice receiving DCA (6 mg/mouse) plus oxamate (15 mg/mouse) were treated every weekday, starting with the first chemoradiation treatment by i.p. injection.
FIG. 8 illustrates a comparison of prodrugs to DCA plus oxamate on tumor growth (A) or on survival (B) with HPV+ model of HNSCC in wild-type C57Bl/6 mice. All mice received 3 rounds of CRT [cisplatin (0.132 mg/mouse) plus radiation (8 Gy/mouse) treatment (Tx) at weekly intervals starting 11 days after tumor initiation]. Mice receiving DCA (6 mg/mouse) plus oxamate (2.2 mg/mouse) were treated every weekday starting with the first chemoradiation treatment by i.p. injection. Mice treated with AT-N4-001 or AT-N4-002 prodrugs (7.6 mg/mouse) were treated on the same schedule as mice treated with DCA+oxamate.
FIG. 18. The effects of DCA, oxamate, DCA plus oxamate on the responses of HPV+E6E7 Ras tumor to CRT. One million E6/E7/Ras MOEs cells were injected subcutaneously into the rear leg of wild-type C57Bl/6 mice. After 11 days, a treatment with DCA (6 mg/mouse) and oxamate (15 mg/mouse) were injected daily by i.p. on weekdays for the remainder of the experiment. All mice received three rounds of treatment with CRT (0.132 mg/mouse cisplatin and 8 Gy radiation, weekly starting at day 11). Tumor volume is mm^3.
FIG. 19 depicts the effects of DCA plus oxamate vs the effects of prodrug 1 or prodrug 2 on the responses of HPV+E6E7 Ras tumor to CRT. Tumors were initiated by injecting 0.5×10^6 E6/E7/Ras MOEs cells. After 11 days, a treatment with DCA (6 mg/mouse) plus oxamate (2 mg/mouse), or prodrug 1 (7.6 mg/mouse), or prodrug 2 (7.6 mg/mouse) was initiated daily by i.p. on weekdays. The doses of DCA and oxamate were equal molar equivalents as would be released from the prodrugs. All mice received three rounds of treatment with CRT (0.132 mg/mouse cisplatin and 8 Gy radiation, weekly starting at day 11). Tumor volume is in mm^3.
The effects of various treatments on tumor responses were carried out by examining whether the treatment could improve tumor's response to CRT with a HPV positive HNSCCs mouse model. CRT is a standard treatment for HPV-positive HNSCC in the clinic (46). […] Applicants also used this model to investigate the effects of lactate on CRT-induced immune-mediated cancer clearance (46) and DCA's effect on the tumor's response to CRT (unpublished data). The literature reported dosages of DCA and oxamate were used (6,23,52,53)(41).
To study the effects of the prodrugs on tumor growth in vivo, C57Bl/6 immune-competent mice implanted with E6/E7/Ras MOEs cells were used as described previously (46). All experiments were performed in accordance with institutional and national guidelines and regulations with the protocol approved by the Animal Care and Use Committee at Sanford Research. Briefly, 1×10^6 tumor HPV+HNSCC cells were injected into the right subcutaneous flank of syngeneic male C57Bl/6 mice. Eleven days after tumor initiation, treatment was initiated daily on weekdays by i.p. injection of vehicle, DCA, Oxamate, DCA+oxamate, prodrug 1, or prodrug 2. All mice received three rounds of treatment with cisplatin/radiation therapy (CRT: 0.132 mg/mouse cisplatin and 8 Gy radiation, weekly starting at day 11). Tumor dimensions were measured weekly to monitor growth. Mice with tumors reaching a volume of 3000 mm^3 or becoming substantially emaciated were euthanized.
To study the effects of the new prodrugs on tumor growth in vivo, C57Bl/6 immune-competent mice were used. Tumors were established on the right flank of the leg. After 11 days, treatment was initiated with daily i.p. injection of vehicle, AT-N4-001, or AT-N4-002. […]

Compound	live cell number (FIG. 4A) (E6E7/Ras MTE cells)	tumor growth with CRT compared to DCA plus oxamate (FIG. 8A/19) [1]	tumor growth with CRT compared to DCA plus oxamate (FIG. 8A/19) ([1]; listed as prodrug 1)	long-term survival (FIG. 8B) ([1]; CRT + 7.6 mg/mouse i.p.) [%]	tumor growth with CRT compared to DCA plus oxamate (FIG. 8A/19) ([1]; listed as Prodrug 2)
NC(=O)C(=O)OC(COC(=O)C(Cl)Cl)COC(=O)C(Cl)Cl [AT-N4-001, 2-(2-Amino-2-oxoacetoxy)propane-1,3-diyl bis(2,2-dichloroacetate)]	significant reductions in live cell number	initially reduced tumor growth compared to CRT+DCA+oxamate control, but this was not maintained over longer times	about equally potent as that of the combination		
NC(=O)C(=O)OCC(COC(=O)C(Cl)Cl)OC(=O)C(Cl)Cl (stereo not shown) [AT-N4-002, 3-(2-amino-2-oxoacetoxy)propane-1,2-diyl bis(2,2-dichloroacetate)]	significant reductions in live cell number	reduced average tumor growth compared to the control during the entire experiment		~25	more effective than DCA plus oxamate during the entire experiment
